These results are taken from US10696693B2, “Fused imidazole derivatives as TGF-beta inhibitors” (Rigel Pharmaceuticals, Inc., priority 2014, dated 2020).

Assay [1] deals with TGF-β. In words: AlphaScreen SureFire p-SMAD3 (Ser423/425) assay, TGF-β-stimulated cells. The assay is classed as cell-based. The note with it: Mus musculus. The essentials:
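The p-SMAD-3 (Ser423/425) SureFire assay measured phosphorylation of endogenous SMAD-3 in cell lysates. Cells were plated overnight in collagen-coated plates, exposed to three-fold serially diluted compounds for about 10 minutes, then stimulated with TGFβ. Lysates (5 μL) received acceptor bead mix for 2 hours, then donor beads for 1½ hours before AlphaScreen reading.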

For assay [2], the system named is GDF8. Description: AlphaScreen SureFire p-SMAD3 (Ser423/425) assay, GDF8-stimulated cells. The assay is classed as cell-based. The settings on record: Mus musculus. The procedure, abridged: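 Lysate (5 μL) went into 384-well shallow plates with 5 μL of Reaction Buffer, Activation Buffer and AlphaScreen Acceptor bead mix. Plates were sealed, kept dark and shaken for 2 hours at room temperature. Donor beads in dilution buffer (2 μL) were added for another 1½ hours, and p-SMAD3 signal was read on a Synergy-4 or Enspire reader.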

The mark [3] stands for this setting: MPC-11, read-out: TGF-β: inhibition of TGF-β signaling, TGF-β pSMAD (MPC-11), p-SMAD3 (Ser423/425) AlphaScreen in cell lysate, TGF-β stimulation.
Setting [4] is: MPC-11, read-out: GDF8: inhibition of GDF8 signaling, GDF pSMAD (MPC11), p-SMAD3 (Ser423/425) AlphaScreen in cell lysate, GDF8 stimulation.
[5] abbreviates: p-SMAD3 (Ser423/425) AlphaScreen in cell lysate, MPC-11, TGF-β stimulation, read-out: TGF-β: inhibition of TGF-β signaling, TGF-β pSMAD (MPC-11).
Setting [6] is: MPC-11, p-SMAD3 (Ser423/425) AlphaScreen in cell lysate, MPC11, GDF8 stimulation, read-out: GDF8: inhibition of GDF8 signaling, GDF pSMAD (MPC11).

Molecules are shown by their SMILES. Read-outs that look alike come from different tables or passages of the source. Some results are limits rather than exact numbers.

As for `COc1cccc(-c2nc3n(c2-c2ccc4[nH]ncc4c2)CCC3)c1` [Compound 185, 5-(2-(3-methoxyphenyl)-6,7-dihydro-5H-pyrrolo[1,2-a]imidazol-3-yl)-1H-indazole], the IC50 in assay [1] (setting [3]) and in assay [2] (setting [4]) was 100 to 1000 nM throughout.

`Cc1cccc(-c2nc3n(c2-c2ccc4[nH]ncc4c2)CCC3)c1` [Compound 168, 5-(2-(m-tolyl)-6,7-dihydro-5H-pyrrolo[1,2-a]imidazol-3-yl)-1H-indazole]: the results for the IC50 in assay [1] (setting [5]) and in assay [2] (setting [6]) were 50 to 100 nM and less than 50 nM, respectively.

As to `Clc1cccc(-c2nc3n(c2-c2ccc4nccn4c2)CCC3)c1` [Compound 6, 6-(2-(3-chlorophenyl)-6,7-dihydro-5H-pyrrolo[1,2-a]imidazol-3-yl)imidazo[1,2-a]pyridine], the IC50 in assay [1] (setting [5]) and in assay [2] (setting [6]) was 100 to 1000 nM each time.

Consider `c1ccc(C2=C(c3ccc4[nH]ncc4c3)C3CCCC3=N2)nc1` (stereo not drawn) [Compound 365, 5-(2-(pyridin-2-yl)-3a,4,5,6-tetrahydrocyclopenta[b]pyrrol-3-yl)-1H-indazole], for which the IC50 in assay [1] (setting [5]) and in assay [2] (setting [6]) was less than 50 nM throughout.

For the compound `Fc1cc(-c2nc3n(c2-c2ccc4ncccc4c2)CCC3)cc(F)c1F` [Compound 247, 6-(2-(3,4,5-trifluorophenyl)-6,7-dihydro-5H-pyrrolo[1,2-a]imidazol-3-yl)quinoline], the values for the IC50 in assay [1] (setting [5]) and in assay [2] (setting [6]) were greater than 1000 nM and 100 to 1000 nM, respectively.

With `Fc1cc(-c2nc3n(c2-c2ccc4ncsc4c2)CCC3)cc(F)c1F` [Compound 229, 6-(2-(3,4,5-trifluorophenyl)-6,7-dihydro-5H-pyrrolo[1,2-a]imidazol-3-yl)benzo[d]thiazole], the IC50 in assay [1] (setting [3]) was greater than 1000 nM; in assay [2] (setting [4]), 100 to 1000 nM.

With `O=C(O)C1CCC2(CC1)Cc1nc(-c3ccc(F)cc3)c(-c3ccc4nccnc4c3)n1C2` (stereo not drawn) [Compound 334, 2′-(4-fluorophenyl)-3′-(quinoxalin-6-yl)-5′H,7′H-spiro[cyclohexane-1,6′-pyrrolo[1,2-a]imidazole]-4-carboxylic acid], the IC50 in assay [1] (setting [3]) and in assay [2] (setting [4]) was greater than 1000 nM each time.

As to `Cc1ccc(Cl)cc1-c1nc2n(c1-c1ccc3nccnc3c1)CCC2` [Compound 342, 6-(2-(5-chloro-2-methylpheny)-6,7-dihydro-5H-pyrrolo[1,2-a]imidazol-3-yl)quinoxaline], the IC50 in assay [1] (setting [5]) and in assay [2] (setting [6]) was 100 to 1000 nM in each case.

As for `Cc1c(-c2nc3n(c2-c2ccc4ncccc4c2)CCC3)ccc(F)c1F` [Compound 263, 6-(2-(3,4-difluoro-2-methylphenyl)-6,7-dihydro-5H-pyrrolo[1,2-a]imidzaol-3-yl)quinoline], the values for the IC50 in assay [1] (setting [5]) and in assay [2] (setting [6]) were greater than 1000 nM and 100 to 1000 nM, respectively.

Regarding `Fc1ccc(-c2nc3occn3c2-c2ccc3nccnc3c2)cc1` [Compound 130, 6-(4-fluorophenyl)-5-(quinoxalin-6-yl)imidazo[2,1-b]oxazole], the IC50 in assay [1] (setting [5]) and in assay [2] (setting [6]) was 100 to 1000 nM in each case.

For the compound `COc1ccc(-c2nc3n(c2-c2ccc4ncccc4c2)CCC3)cc1` [Compound 352, 6-(2-(4-methoxyphenyl)-6,7-dihydro-5H-pyrrolo[1,2-a]imidazol-3-yl)quinoline], the IC50 in assay [1] (setting [3]) and in assay [2] (setting [4]) was greater than 1000 nM throughout.

On to `Cc1cc(-c2nc3n(c2-c2ccc4ncsc4c2)CCC3)cc(Cl)c1F` [Compound 273, 6-(2-(3-chloro-4-fluoro-5-methylpheny)-6,7-dihydro-5H-pyrrolo[1,2-a]imidazol-3-yl)benzo[d]thiazole], for which the IC50 in assay [1] (setting [5]) and in assay [2] (setting [6]) was greater than 1000 nM throughout.

For the compound `Fc1cc(Cl)c(-c2nc3n(c2-c2ccc4nccnc4c2)CCC3)cc1F` [Compound 291, 6-(2-(2-chloro-4,5-difluorophenyl)-6,7-dihydro-5H-pyrrolo[1,2-a]imidazol-3-yl)quinoxaline], the figures for the IC50 in assay [1] (setting [3]) and in assay [2] (setting [4]) were 100 to 1000 nM and 50 to 100 nM, respectively.

As for `Fc1ccc(-c2nc3occn3c2-c2ccc3[nH]ncc3c2)c(F)c1` [Compound 154, 6-(2,4-difluorophenyl)-5-(1H-indazol-5-yl)imidazo[2,1-b]oxazole], the IC50 is 100 to 1000 nM in assay [1] (setting [5]) and less than 50 nM in assay [2] (setting [6]).

`CC(C)c1nnc2ccc(-c3c(-c4cc(F)c(F)cc4F)nc4n3CCC4)cn12` [Compound 21, 3-isopropyl-6-(2-(2,4,5-trifluorophenyl)-6,7-dihydro-5H-pyrrolo[1,2-a]imidazol-3-yl)-[1,2,4]triazolo[4,3-a]pyridine]: the IC50 in assay [1] (setting [5]) and in assay [2] (setting [6]) was greater than 1000 nM throughout.

`CN(C)CCOc1cnc2ccc(-c3c(-c4cc(Cl)ccc4F)nc4n3CCC4)cc2n1` [Compound 363, 2-((7-(2-(5-chloro-2-fluorophenyl)-6,7-dihydro-5H-pyrrolo[1,2-a]imidazol-3-yl)quinoxalin-2-yl)oxy)-N,N-dimethylethan-1-amine]: the IC50 in assay [1] (setting [5]) and in assay [2] (setting [6]) was less than 50 nM throughout.

Turning to `Cc1cc(F)ccc1-c1nc2n(c1-c1ccc3ncsc3c1)CCC2` [Compound 293, 6-(2-(4-fluoro-2-methylphenyl)-6,7-dihydro-5H-pyrrolo[1,2-a]imidazol-3-yl)benzo[d]thiazole], the IC50 in assay [1] (setting [5]) and in assay [2] (setting [6]) was 100 to 1000 nM in each case.

Turning to `Fc1cccc(-c2nc3n(c2-c2ccc4c(c2)OCO4)CCC3)c1` [Compound 223, 3-(benzo[d][1,3]dioxol-5-yl)-2-(3-fluorophenyl)-6,7-dihydro-5H-pyrrolo[1,2-a]imidazole], the IC50 in assay [1] (setting [5]) and in assay [2] (setting [6]) was greater than 1000 nM in each case.

Regarding `Cc1c(F)ccc(-c2nc3n(c2-c2ccc4ncnn4c2)CCC3)c1Cl` [Compound 66, 6-(2-(2-chloro-4-fluoro-3-methylphenyl)-6,7-dihydro-5H-pyrrolo[1,2-a]imidazol-3-yl)-[1,2,4]triazolo[1,5-a]pyridine], the results for the IC50 in assay [1] (setting [5]) and in assay [2] (setting [6]) were greater than 1000 nM and 100 to 1000 nM, respectively.

As for `Cc1ccccc1-c1nc2n(c1-c1ccc3[nH]ncc3c1)CCC2` [Compound 304, 5-(2-(o-tolyl)-6,7-dihydro-5H-pyrrolo[1,2-a]imidazol-3-yl)-1H-indazole], the IC50 in assay [1] (setting [5]) and in assay [2] (setting [6]) was greater than 1000 nM throughout.

As to `Fc1cc(F)c(-c2nc3n(c2-c2ccc4nccnc4c2)CCC3)cc1F` [Compound 219, 6-(2-(2,4,5-trifluorophenyl)-6,7-dihydro-5H-pyrrolo[1,2-a]imidazol-3-yl)quinoxaline], the IC50 in assay [1] (setting [5]) was 100 to 1000 nM; in assay [2] (setting [6]), less than 50 nM.

Take `Cc1cc(-c2nc3n(c2-c2ccc4[nH]ncc4c2)CCC3)c(C)cc1F` [Compound 308, 5-(2-(4-fluoro-2,5-dimethylphenyl)-6,7-dihydro-5H-pyrrolo[1,2-a]imidaol-3-yl)-1H-indazole]: the IC50 is greater than 1000 nM in assay [1] (setting [5]) and 100 to 1000 nM in assay [2] (setting [6]).

As to `Fc1cc(F)c(-c2nc3n(c2-c2cc4cnccc4s2)CCC3)cc1F` [Compound 99, 2-(2-(2,4,5-trifluorophenyl)-6,7-dihydro-5H-pyrrolo[1,2-a]imidazol-3-yl)thieno[3,2-c]pyridine], the IC50 in assay [1] (setting [5]) was 100 to 1000 nM; in assay [2] (setting [6]) it was 50 to 100 nM.

Consider `FC(F)(F)c1cccc(-c2nc3n(c2-c2ccc4ncsc4c2)CCC3)c1` [Compound 183, 6-(2-(3-(trifluoromethyl)phenyl)-6,7-dihydro-5H-pyrrolo[1,2-a]imidazol-3-yl)benzo[d]thiazole], for which the IC50 in assay [1] (setting [5]) was in the range of 100 to 1000 nM; in assay [2] (setting [6]), 50 to 100 nM.
